Experimental data taken from the kinase profiling compilation of Christmann-Franck et al. (2016).

Columns and labels:
Assay in all cases: KINOMEscan competition binding
Conditions in all cases: compound 1.0 µM
PRKCQ (human) = PRKCQ (human) (UniProt Q04759)
CLK4 (human) = CLK4 (human) (UniProt Q9HAZ1)
TXK (human) = TXK (human) (UniProt P42681)
TEK (human) = TEK (human) (UniProt Q02763)
DYRK2 (human) = DYRK2 (human) (UniProt Q92630)
PAK4 (human) = PAK4 (human) (UniProt O96013)
DAPK2 (human) = DAPK2 (human) (UniProt Q9UIK4)
SIK1 (human) = SIK1 (human) (UniProt P57059)
MKNK2 (human) = MKNK2 (human) (UniProt Q9HBH9)
MKNK2 (human), sequence (Q9HBH9 whole entry, looked up): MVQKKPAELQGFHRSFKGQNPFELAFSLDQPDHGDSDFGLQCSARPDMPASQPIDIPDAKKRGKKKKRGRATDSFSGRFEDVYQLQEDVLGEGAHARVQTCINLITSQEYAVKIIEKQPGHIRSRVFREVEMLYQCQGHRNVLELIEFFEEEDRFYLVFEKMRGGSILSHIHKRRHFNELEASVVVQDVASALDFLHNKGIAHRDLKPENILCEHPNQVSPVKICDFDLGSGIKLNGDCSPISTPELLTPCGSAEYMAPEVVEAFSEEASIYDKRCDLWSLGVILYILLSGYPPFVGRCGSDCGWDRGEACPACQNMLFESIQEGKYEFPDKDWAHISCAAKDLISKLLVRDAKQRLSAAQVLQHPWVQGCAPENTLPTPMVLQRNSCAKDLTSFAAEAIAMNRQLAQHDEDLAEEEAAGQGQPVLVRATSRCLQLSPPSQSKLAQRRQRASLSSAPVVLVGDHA

EPHA4 (human) = EPHA4 (human) (UniProt P54764)
EPHA4 (human), sequence (P54764 whole entry, looked up): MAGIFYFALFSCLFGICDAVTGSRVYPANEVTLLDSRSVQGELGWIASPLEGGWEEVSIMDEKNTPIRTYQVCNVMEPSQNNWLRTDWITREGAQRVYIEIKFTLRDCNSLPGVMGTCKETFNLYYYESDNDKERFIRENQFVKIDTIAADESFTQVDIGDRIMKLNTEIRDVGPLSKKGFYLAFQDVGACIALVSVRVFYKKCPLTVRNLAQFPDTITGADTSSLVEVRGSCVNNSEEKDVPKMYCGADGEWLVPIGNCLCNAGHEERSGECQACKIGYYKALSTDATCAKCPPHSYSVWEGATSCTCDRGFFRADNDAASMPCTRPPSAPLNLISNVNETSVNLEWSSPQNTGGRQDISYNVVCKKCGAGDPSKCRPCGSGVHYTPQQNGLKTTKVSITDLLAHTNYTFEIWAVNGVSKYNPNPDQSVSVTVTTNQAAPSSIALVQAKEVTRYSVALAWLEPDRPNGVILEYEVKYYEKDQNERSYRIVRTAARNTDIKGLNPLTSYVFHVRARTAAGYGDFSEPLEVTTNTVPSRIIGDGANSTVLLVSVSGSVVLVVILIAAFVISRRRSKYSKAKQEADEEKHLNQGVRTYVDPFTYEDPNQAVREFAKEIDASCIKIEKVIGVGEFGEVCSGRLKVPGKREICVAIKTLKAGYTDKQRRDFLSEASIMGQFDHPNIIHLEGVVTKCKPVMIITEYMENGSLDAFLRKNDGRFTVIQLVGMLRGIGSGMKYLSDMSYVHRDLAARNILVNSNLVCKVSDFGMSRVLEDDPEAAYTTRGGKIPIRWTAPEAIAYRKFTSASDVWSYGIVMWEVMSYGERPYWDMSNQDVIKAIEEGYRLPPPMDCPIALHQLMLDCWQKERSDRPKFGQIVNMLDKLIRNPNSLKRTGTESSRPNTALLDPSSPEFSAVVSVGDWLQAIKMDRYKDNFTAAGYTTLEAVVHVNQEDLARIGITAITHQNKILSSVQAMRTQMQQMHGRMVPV

ROCK1 (human) = ROCK1 (human) (UniProt Q13464)
CDK18 (human) = CDK18 (human) (UniProt Q07002)
CDC42BPG (human) = CDC42BPG (human) (UniProt Q6DT37)
[1] = test system: EGFR (human), P00533 [L858R]
[2] = test system: RET (human), P07949 [V804L]
MERTK (human) = MERTK (human) (UniProt Q12866)
CDK9 (human) = CDK9 (human) (UniProt P50750)
[3] = test system: EGFR (human), P00533 [T790M/L858R]
HIPK4 (human) = HIPK4 (human) (UniProt Q8NE63)
CSNK1D (human) = CSNK1D (human) (UniProt P48730)
CSNK1D (human), sequence (P48730 whole entry, looked up): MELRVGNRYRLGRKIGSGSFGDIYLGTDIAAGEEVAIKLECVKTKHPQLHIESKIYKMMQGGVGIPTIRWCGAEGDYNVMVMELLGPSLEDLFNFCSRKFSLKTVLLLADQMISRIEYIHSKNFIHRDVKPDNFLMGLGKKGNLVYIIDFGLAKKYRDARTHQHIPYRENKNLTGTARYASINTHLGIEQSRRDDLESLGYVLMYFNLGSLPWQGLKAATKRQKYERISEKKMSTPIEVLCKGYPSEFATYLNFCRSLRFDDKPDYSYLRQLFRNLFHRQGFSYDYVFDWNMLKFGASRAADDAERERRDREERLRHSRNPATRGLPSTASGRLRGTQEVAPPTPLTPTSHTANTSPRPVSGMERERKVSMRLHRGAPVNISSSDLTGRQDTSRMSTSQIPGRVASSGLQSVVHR

MARK2 (human) = MARK2 (human) (UniProt Q7KZI7)
EPHA3 (human) = EPHA3 (human) (UniProt P29320)
MAPK4 (human) = MAPK4 (human) (UniProt P31152)
PHKG1 (human) = PHKG1 (human) (UniProt Q16816)
ROS1 (human) = ROS1 (human) (UniProt P08922)
LIMK2 (human) = LIMK2 (human) (UniProt P53671)
LIMK2 (human), sequence (P53671 whole entry, looked up): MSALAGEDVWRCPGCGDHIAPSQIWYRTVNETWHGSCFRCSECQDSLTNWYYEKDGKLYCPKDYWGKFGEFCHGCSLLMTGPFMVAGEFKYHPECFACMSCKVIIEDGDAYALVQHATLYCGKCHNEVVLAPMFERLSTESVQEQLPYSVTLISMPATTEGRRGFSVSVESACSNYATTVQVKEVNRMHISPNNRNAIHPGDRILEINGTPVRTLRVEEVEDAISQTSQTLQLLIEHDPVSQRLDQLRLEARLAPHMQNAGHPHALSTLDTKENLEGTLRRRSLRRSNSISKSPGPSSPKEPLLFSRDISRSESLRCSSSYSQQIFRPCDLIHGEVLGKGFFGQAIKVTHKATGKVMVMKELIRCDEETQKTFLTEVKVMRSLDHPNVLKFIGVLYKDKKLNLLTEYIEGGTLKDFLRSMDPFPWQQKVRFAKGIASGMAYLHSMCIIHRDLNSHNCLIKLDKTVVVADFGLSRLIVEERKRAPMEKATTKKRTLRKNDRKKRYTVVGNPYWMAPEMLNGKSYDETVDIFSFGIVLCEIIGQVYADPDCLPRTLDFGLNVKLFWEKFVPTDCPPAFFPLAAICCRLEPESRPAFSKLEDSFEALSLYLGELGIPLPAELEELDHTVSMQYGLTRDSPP

SRPK1 (human) = SRPK1 (human) (UniProt Q96SB4)
CAMKK2 (human) = CAMKK2 (human) (UniProt Q96RR4)
AXL (human) = AXL (human) (UniProt P30530)
DCLK1 (human) = DCLK1 (human) (UniProt O15075)
EIF2AK2 (human) = EIF2AK2 (human) (UniProt P19525)
RPS6KA5 KD2 (human) = RPS6KA5 KD2 (human) (UniProt O75582)
AURKC (human) = AURKC (human) (UniProt Q9UQB9)
TLK2 (human) = TLK2 (human) (UniProt Q86UE8)
[4] = test system: EGFR (human), P00533 [747-751 del / S ins]
AKT2 (human) = AKT2 (human) (UniProt P31751)
CDK16 (human) = CDK16 (human) (UniProt Q00536)
MAP4K3 (human) = MAP4K3 (human) (UniProt Q8IVH8)
MAP4K2 (human) = MAP4K2 (human) (UniProt Q12851)
PRKCE (human) = PRKCE (human) (UniProt Q02156)
PRKCE (human), sequence (Q02156 whole entry, looked up): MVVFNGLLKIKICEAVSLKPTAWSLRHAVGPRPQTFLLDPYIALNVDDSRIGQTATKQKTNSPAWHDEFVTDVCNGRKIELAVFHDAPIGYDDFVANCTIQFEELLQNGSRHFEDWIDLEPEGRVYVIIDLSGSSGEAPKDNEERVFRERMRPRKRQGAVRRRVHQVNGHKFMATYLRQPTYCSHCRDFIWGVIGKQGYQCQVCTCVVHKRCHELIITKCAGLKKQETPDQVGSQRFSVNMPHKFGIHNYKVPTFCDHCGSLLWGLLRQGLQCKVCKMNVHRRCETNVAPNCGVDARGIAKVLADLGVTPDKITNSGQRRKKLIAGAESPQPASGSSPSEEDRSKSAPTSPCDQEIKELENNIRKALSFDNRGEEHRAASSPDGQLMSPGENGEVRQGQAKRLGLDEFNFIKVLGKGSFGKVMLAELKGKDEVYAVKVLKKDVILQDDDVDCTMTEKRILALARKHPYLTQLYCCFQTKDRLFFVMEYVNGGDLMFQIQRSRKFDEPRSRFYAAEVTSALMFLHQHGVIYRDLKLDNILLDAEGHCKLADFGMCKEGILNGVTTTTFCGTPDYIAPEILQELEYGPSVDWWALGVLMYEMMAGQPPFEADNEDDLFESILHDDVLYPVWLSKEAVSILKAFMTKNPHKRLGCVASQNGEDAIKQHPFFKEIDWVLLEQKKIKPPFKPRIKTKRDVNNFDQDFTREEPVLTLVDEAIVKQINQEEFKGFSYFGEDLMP

TEK (human), sequence (Q02763 whole entry, looked up): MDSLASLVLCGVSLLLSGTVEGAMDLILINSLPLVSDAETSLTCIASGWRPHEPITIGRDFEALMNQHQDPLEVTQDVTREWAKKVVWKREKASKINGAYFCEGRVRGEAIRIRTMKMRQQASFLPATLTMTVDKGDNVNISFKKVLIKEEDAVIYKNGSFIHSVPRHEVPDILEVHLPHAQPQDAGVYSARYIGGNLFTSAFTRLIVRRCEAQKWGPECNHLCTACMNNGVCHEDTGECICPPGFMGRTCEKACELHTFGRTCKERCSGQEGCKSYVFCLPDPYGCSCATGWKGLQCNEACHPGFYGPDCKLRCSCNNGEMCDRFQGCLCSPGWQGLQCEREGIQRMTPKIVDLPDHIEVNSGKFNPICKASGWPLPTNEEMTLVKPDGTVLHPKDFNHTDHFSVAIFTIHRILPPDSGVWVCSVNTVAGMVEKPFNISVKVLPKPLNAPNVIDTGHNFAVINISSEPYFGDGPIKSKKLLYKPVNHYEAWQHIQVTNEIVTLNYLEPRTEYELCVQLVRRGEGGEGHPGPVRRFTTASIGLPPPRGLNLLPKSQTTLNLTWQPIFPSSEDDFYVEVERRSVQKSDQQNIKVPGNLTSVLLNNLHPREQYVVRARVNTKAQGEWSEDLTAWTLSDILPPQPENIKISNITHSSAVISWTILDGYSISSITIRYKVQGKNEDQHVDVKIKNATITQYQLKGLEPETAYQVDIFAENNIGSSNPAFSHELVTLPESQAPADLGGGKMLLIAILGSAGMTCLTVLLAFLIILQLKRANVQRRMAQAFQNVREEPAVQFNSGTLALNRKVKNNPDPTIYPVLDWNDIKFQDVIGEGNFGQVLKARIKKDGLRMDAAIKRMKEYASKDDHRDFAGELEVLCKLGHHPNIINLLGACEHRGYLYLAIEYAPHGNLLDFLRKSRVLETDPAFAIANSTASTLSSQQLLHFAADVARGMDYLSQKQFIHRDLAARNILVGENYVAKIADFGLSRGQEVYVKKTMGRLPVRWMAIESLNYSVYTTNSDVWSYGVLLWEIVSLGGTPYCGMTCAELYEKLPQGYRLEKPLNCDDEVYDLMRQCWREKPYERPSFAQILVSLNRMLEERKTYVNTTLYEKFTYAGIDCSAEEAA
PRKCQ (human), sequence (Q04759 whole entry, looked up): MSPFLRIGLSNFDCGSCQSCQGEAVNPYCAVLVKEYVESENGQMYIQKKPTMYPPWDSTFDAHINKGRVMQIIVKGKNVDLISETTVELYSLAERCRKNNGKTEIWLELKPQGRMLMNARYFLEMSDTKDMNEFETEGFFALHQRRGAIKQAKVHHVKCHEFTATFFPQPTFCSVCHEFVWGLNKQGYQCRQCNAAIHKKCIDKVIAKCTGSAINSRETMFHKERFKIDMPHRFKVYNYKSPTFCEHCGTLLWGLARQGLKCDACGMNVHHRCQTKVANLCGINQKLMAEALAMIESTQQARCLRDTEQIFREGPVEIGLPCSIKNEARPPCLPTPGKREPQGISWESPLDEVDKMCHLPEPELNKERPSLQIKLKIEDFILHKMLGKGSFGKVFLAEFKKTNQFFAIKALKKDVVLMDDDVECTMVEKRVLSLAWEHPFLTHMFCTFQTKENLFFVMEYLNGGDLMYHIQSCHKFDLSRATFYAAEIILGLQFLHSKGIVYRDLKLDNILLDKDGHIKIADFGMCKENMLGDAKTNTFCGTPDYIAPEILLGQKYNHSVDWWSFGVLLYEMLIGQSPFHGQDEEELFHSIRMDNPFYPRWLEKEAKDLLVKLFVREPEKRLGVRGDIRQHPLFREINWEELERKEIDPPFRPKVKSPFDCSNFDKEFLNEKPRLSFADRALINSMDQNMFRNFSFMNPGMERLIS

Molecule `Nc1cc(C(F)(F)F)c(-c2cc(N3CCOCC3)nc(N3CCOCC3)n2)cn1` has an inhibition of binding (PRKCQ (human)) of 0%, an inhibition of binding (CLK4 (human)) of 70% and an inhibition of binding (TXK (human)) of 0%. The inhibition of binding (TEK (human)) was 0%, the inhibition of binding (DYRK2 (human)) was 20% and the inhibition of binding (PAK4 (human)) was 13%. The inhibition of binding (DAPK2 (human)) was 13%, the inhibition of binding (SIK1 (human)) was 0% and the inhibition of binding (MKNK2 (human)) was 5%. For the same molecule, the inhibition of binding (EPHA4 (human)) was 2%, the inhibition of binding (ROCK1 (human)) was 0% and the inhibition of binding (CDK18 (human)) was 34%. For the same molecule, the inhibition of binding (CDC42BPG (human)) was 0%, the inhibition of binding [1] was 16% and the inhibition of binding [2] was 12%. It also gave an inhibition of binding (MERTK (human)) of 0%, an inhibition of binding (CDK9 (human)) of 12% and an inhibition of binding [3] of 0%. The inhibition of binding (HIPK4 (human)) was 21%, the inhibition of binding (CSNK1D (human)) was 27% and the inhibition of binding (MARK2 (human)) was 0%. The inhibition of binding (EPHA3 (human)) was 0%, the inhibition of binding (MAPK4 (human)) was 0% and the inhibition of binding (PHKG1 (human)) was 11%. It also gave an inhibition of binding (ROS1 (human)) of 0%, an inhibition of binding (LIMK2 (human)) of 0% and an inhibition of binding (SRPK1 (human)) of 0%. For the same molecule, the inhibition of binding (CAMKK2 (human)) was 0%, the inhibition of binding (AXL (human)) was 7% and the inhibition of binding (DCLK1 (human)) was 7%. The inhibition of binding (EIF2AK2 (human)) was 19%, the inhibition of binding (RPS6KA5 KD2 (human)) was 50% and the inhibition of binding (AURKC (human)) was 0%. It also gave an inhibition of binding (TLK2 (human)) of 13%, an inhibition of binding [4] of 4% and an inhibition of binding (AKT2 (human)) of 0%. For the same molecule, the inhibition of binding (CDK16 (human)) was 0%, the inhibition of binding (MAP4K3 (human)) was 0% and the inhibition of binding (MAP4K2 (human)) was 17%. For the same molecule, the inhibition of binding (PRKCE (human)) was 0%.
